Source: ChEMBL document CHEMBL4665893, “Scalable Synthesis, In Vitro cccDNA Reduction, and In Vivo Antihepatitis B Virus Activity of a Phosphonomethoxydeoxythreosyl Adenine Prodrug” (J Med Chem, 2020)
The source made the active and inactive calls. The calls are words filed in the database; no cut-off is given here.

Columns and labels:
[1] = test system: Hepatitis B virus; assay: Antiviral activity against ETV-resistant and adenovirus AdH294-7LR harboring wild-type HBV infected in human HepG2 cells assessed as reduction in viral replicative intermediate DNAs at 4 to 1000 nM incubated for 5 days by Southern blot analysis; type: functional, organism-based; settings: time 5.0 day
[2] = Toxicity in C57BL/6 male mouse assessed as increase in neutrophils level at 60 mg/kg, po for 14 days by hematology analysis; type: organism-based; settings: in vivo, 336 h, time 14 day
[3] = test system: Hepatitis B virus; assay: Antiviral activity against ETV-resistant and adenovirus AdH294-7LR harboring wild-type HBV infected in human HepG2 cells assessed as viral replicative intermediate DNA level at 3300 nM incubated for 5 days by Southern blot analysis (reference value: 100%); type: functional; settings: time 5 day
[4] = Genotoxicity in Salmonella typhimurium TA98 assessed as increase in number of spontaneous revertants colonies by Ames test; type: toxicity; settings: salmonella enterica subsp. enterica serovar typhimurium, 1 µM
[5] = Toxicity in C57BL/6 female mouse assessed as increase in neutrophils level at 60 mg/kg, po for 14 days by hematology analysis; type: organism-based; settings: in vivo, 336 h, time 14 day
[6] = Toxicity in C57BL/6 female mouse assessed as effect on clinical chemistry level at 60 mg/kg, po for 14 days; type: organism-based; settings: in vivo, 336 h, time 14 day
[7] = Toxicity in C57BL/6 female mouse assessed as reduction in hemoglobin level at 60 mg/kg, po for 14 days by hematology analysis; type: organism-based; settings: in vivo, 336 h, time 14 day
[8] = Toxicity in C57BL/6 male mouse assessed as reduction in lymphocytes level at 60 mg/kg, po for 14 days by hematology analysis; type: organism-based; settings: in vivo, 336 h, time 14 day
[9] = Genotoxicity in Salmonella typhimurium TA100 assessed as increase in number of spontaneous revertants colonies by Ames test; type: toxicity; settings: salmonella enterica subsp. enterica serovar typhimurium, 1 µM
[10] = test system: Hepatitis B virus; assay: Antiviral activity against ETV-resistant and adenovirus AdH294-7LR harboring wild-type HBV infected in human HepG2 cells assessed as viral replicative intermediate DNA level at 10000 nM incubated for 5 days by Southern blot analysis (reference value: 100%); type: functional; settings: time 5 day
[11] = Toxicity in C57BL/6 female mouse assessed as reduction in lymphocytes level at 60 mg/kg, po for 14 days by hematology analysis; type: organism-based; settings: in vivo, 336 h, time 14 day
[12] = test system: Hepatitis B virus; assay: Antiviral activity against adenovirus AdH294-WT harboring wild-type HBV genotype D accession #V01460 infected in human HepG2 cells assessed as reduction in viral replicative intermediate DNAs incubated for 5 days by Southern blot analysis; type: functional, organism-based; settings: genotype D accession #V01460, HepG2, 120 h
[13] = test system: Hepatitis B virus; assay: Antiviral activity against ETV-resistant and adenovirus AdH294-7LR harboring wild-type HBV infected in human HepG2 cells assessed as viral replicative intermediate DNA level at 13 nM incubated for 5 days by Southern blot analysis (reference value: 100%); type: functional; settings: time 5 day
[14] = test system: Hepatitis B virus; assay: Antiviral activity against HBV infected in human HepDE19 cells assessed as reduction in HBV cccDNA incubated for 9 days by qPCR analysis; type: functional, organism-based; settings: HepDE19, 216 h
[15] = Toxicity in C57BL/6 female mouse assessed as effect on organ weight level at 60 mg/kg, po for 14 days; type: organism-based; settings: in vivo, 336 h, time 14 day
[16] = Toxicity in C57BL/6 male mouse assessed as effect on clinical chemistry level at 60 mg/kg, po for 14 days; type: organism-based; settings: in vivo, 336 h, time 14 day
[17] = Toxicity in C57BL/6 mouse assessed as induction of body weight loss at 60 mg/kg, po for 14 days relative to control; type: organism-based; settings: in vivo, 336 h, time 14 day
[18] = test system: Hepatitis B virus; assay: Antiviral activity against ETV-resistant and adenovirus AdH294-7LR harboring wild-type HBV infected in human HepG2 cells assessed as viral replicative intermediate DNA level at 4 nM incubated for 5 days by Southern blot analysis (reference value: 100%); type: functional; settings: time 5 day
[19] = Toxicity in C57BL/6 male mouse assessed as reduction in mean corpuscular volume level at 60 mg/kg, po for 14 days by hematology analysis; type: organism-based; settings: in vivo, 336 h, time 14 day
[20] = Plasma concentration in C57BL/6 mouse at 6 mg/kg, po administered as single dose after 0.25 to 24 hrs by LC/MS/MS analysis; type: ADME, organism-based; settings: in vivo, time 0.25-24 hrs
[21] = Toxicity in C57BL/6 female mouse assessed as reduction in mean corpuscular volume level at 60 mg/kg, po for 14 days by hematology analysis; type: organism-based; settings: in vivo, 336 h, time 14 day
[22] = Genotoxicity in Salmonella typhimurium at 1 uM by Ames test; type: toxicity; settings: salmonella enterica subsp. enterica serovar typhimurium
[23] = test system: Hepatitis B virus; assay: Antiviral activity against ETV-resistant and adenovirus AdH294-7LR harboring wild-type HBV infected in human HepG2 cells assessed as viral replicative intermediate DNA level at 1100 nM incubated for 5 days by Southern blot analysis (reference value: 100%); type: functional; settings: time 5 day
[24] = Toxicity in C57BL/6 female mouse assessed as reduction in hematocrit level at 60 mg/kg, po for 14 days by hematology analysis; type: organism-based; settings: in vivo, 336 h, time 14 day
[25] = Toxicity in C57BL/6 female mouse assessed as reduction in erythrocytes level at 60 mg/kg, po for 14 days by hematology analysis; type: organism-based; settings: in vivo, 336 h, time 14 day

With CC(C)CCOC(=O)C[C@H](NP(=O)(CO[C@H]1CO[C@@H](n2cnc3c(N)ncnc32)C1)Oc1ccccc1)C(=O)OCCC(C)C (mixture of isomers) the Activity [1] was “Active”, the Activity [2] was “Toxic” and the Activity [3] was 11.7%. For the same compound, the Activity [4] was “Non-Toxic”, the Activity [5] was “Non-Toxic” and the Activity [6] was “Non-Toxic”. The Activity [7] was “Non-Toxic”, the Activity [8] was “Toxic” and the Activity [9] was “Non-Toxic”. The Activity [10] was 5.9%, the Activity [11] was “Non-Toxic” and the EC50 [12] was less than 4 nM. For the same compound, the Activity [13] was 101.5%, the IC50 [14] was 6 nM and the IC90 ([14]; time 9 day) was 70 nM. For the same compound, the Activity [15] was “Non-Toxic”, the Activity [16] was “Non-Toxic” and the Activity [17] was 4%. For the same compound, the Activity [18] was 98.2%, the Activity [19] was “Toxic” and the Cp [20] was less than 1.01 ng/mL. The Activity [21] was “Non-Toxic”, the Activity [22] was “Non-Toxic” and the Activity [23] was 18.1%. For the same compound, the Activity [24] was “Non-Toxic” and the Activity [25] was “Non-Toxic”.
